Experimental data: patent US20080014153A1, “Topical Preparation For Application To The Skin Containing Natural Oil Of The Evening Primrose (Oenothera Biennis) (=Oleum Oenotherae) And Osmolytes Originating From Extremophilic Microorganisms” (priority 2004, published 2008)

Key:
[1] = test system: very dry, irritated and problematic skin; assay: Tending effect of care product on skin; type: in vivo; conditions: 0.5% (wt. percent) ectoine in evening primrose oil containing product
[2] = 0.1% (wt. percent) added to evening primrose oil preparation; room temperature, 25° C.; first occurrence of rancid smell
Experimental: The stability of the preparation was assessed based on the first occurrence of a rancid smell of the evening primrose oil.

CC1=NCC[C@@H](C(=O)O)N1 [ectoine]
tending effect compared with evening primrose oil containing tending product of identical composition [1]: noticeably better tending effect

diglycerol phosphate
improved evening primrose oil storage stability compared to a check preparation without diglycerol phosphates [2]: five
